From patent US20240166664A1, “TRIHETEROCYCLIC COMPOUND, PREPARATION METHOD THEREFOR, AND APPLICATION THEREOF” (SHANGHAI APEIRON THERAPEUTICS COMPANY LIMITED, priority 2021, published 2024) come the findings set out here.

One assay relates to NCI-H1373 cells. The assay is described as follows: Cell proliferation inhibition assay (CTG method). It counts as cell-based, human. Particulars: Homo sapiens, NCI-H1373, 144 h, NCI-H1373 cells, 6 days incubation, CTG method; read-out: IC50 (nM) for NCI-H1373 cell viability.
The target in another assay is T1, PARP7 (Homo sapiens, UniProt Q7Z3E1).
T1 construct: purchased BPS 80527
T1 sequence (Q7Z3E1 1-657): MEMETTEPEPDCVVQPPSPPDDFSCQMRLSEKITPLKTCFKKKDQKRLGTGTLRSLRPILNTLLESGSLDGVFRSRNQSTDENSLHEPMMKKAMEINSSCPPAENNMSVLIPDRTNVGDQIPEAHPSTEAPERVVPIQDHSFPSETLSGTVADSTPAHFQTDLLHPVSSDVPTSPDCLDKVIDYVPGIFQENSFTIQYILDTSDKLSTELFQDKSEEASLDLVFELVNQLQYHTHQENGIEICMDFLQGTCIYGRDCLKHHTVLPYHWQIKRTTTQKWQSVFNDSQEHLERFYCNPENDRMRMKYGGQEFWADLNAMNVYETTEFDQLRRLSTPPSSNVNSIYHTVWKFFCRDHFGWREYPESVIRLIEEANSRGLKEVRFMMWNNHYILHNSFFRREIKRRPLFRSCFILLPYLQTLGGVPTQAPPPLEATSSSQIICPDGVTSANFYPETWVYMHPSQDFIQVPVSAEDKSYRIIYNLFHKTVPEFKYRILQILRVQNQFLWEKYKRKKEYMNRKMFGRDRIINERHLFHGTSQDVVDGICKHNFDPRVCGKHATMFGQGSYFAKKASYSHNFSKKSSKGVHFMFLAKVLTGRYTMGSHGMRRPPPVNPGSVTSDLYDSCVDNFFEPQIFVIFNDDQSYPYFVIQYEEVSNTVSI
Kind of assay: Test of inhibitory activity against PARP7 enzyme (PARP7 FLAG-tag, Probe A, time-resolved fluorescence). It counts as biochemical. To be noted: PARP7 12 nM, Probe A 2 nM, 1 hr room temperature.

SMILES strings stand for the structures.

Broadly, the IC50 is the concentration that gives 50% inhibition. On to `C[C@@H](COCCC(=O)N1CCN2c3ncc(C(F)(F)F)cc3C(=O)OC[C@@H]2C1)Nc1cn[nH]c(=O)c1C(F)(F)F` [Compound 4, (S)-9-(3-((S)-2-((6-oxo-5-(trifluoromethyl)-1,6-dihydropyridazin-4-yl)amino)propoxy)propionyl)-3-(trifluoromethyl)-7,7a, 8,9,10,11-hexahydro-5H-pyrazino[2,1-c]pyrido[2,3-e][1,4]oxazin-5-one], for which the IC50 with NCI-H1373 cells was over 5000 nM; on PARP7 it was under 10 nM.

With `C[C@@H](COCCC(=O)N1CCN2c3ncc(C(F)(F)F)cc3NC[C@H]2C1)Nc1cn[nH]c(=O)c1C(F)(F)F` [Compound 9], the figures for the half-inhibitory concentration (IC50) in the assay with NCI-H1373 cells and against PARP7 were 500 to 5000 nM and under 10 nM, respectively.

Regarding `C[C@@H](COCCC(=O)N1CCN2c3ncc(C(F)(F)F)cc3CNC[C@H]2C1)Nc1cn[nH]c(=O)c1C(F)(F)F` [Compound 10], the IC50 is 100 to 500 nM in the assay on NCI-H1373 cells and under 10 nM against PARP7.

For `C[C@@H](COCCC(=O)N1CCN2c3ncc(C(F)(F)F)cc3CN(C#N)C[C@H]2C1)Nc1cn[nH]c(=O)c1C(F)(F)F` [Compound 11], the IC50 with NCI-H1373 cells is 500 to 5000 nM; against PARP7, under 10 nM.

Consider `C[C@@H](COCCC(=O)N1CCN2c3ncc(C(F)(F)F)cc3CSC[C@H]2C1)Nc1cn[nH]c(=O)c1C(F)(F)F` [Compound 12, 5-(((S)-1-(3-oxo-3-((R)-3-(trifluoromethyl)-7a, 8,10,11-tetrahydro-5H-pyrazino[2,1-c]pyrido[2,3-e][1,4]thiazin-9(7H)-yl)propoxy)prop-2-yl)amino)-4-(trifluoromethyl)pyridazin-3(2H)-one], for which the IC50 in the assay with NCI-H1373 cells is under 100 nM; against PARP7, under 10 nM.

For `C[C@@H](COCCC(=O)N1CCN2c3ncc(C(F)(F)F)nc3OC[C@H]2C1)Nc1cn[nH]c(=O)c1C(F)(F)F` [Compound 14], the 50% inhibitory concentration (IC50) in the assay on NCI-H1373 cells was 100 to 500 nM; against PARP7, under 10 nM.

In the case of `C[C@@H](COCCC(=O)N1CCN2c3ncc(C(F)(F)F)cc3C[S+]([O-])C[C@H]2C1)Nc1cn[nH]c(=O)c1C(F)(F)F` (stereo partly drawn) [Compound 15, 5-(((2S)-1-(3-((7aR)-6-oxo-3-(trifluoromethyl)-7a, 8,10,11-tetrahydro-5H-pyrazino[2,1-c]pyrido[2,3-e][1,4]thiazin-9(7H)-yl)-3-oxopropoxy)prop-2-yl)amino)-4-(trifluoromethyl)pyridazin-3(2H)-one], the IC50 in the assay with NCI-H1373 cells is 500 to 5000 nM; on PARP7 it was under 10 nM.

As for `C[C@@H](COCCC(=O)N1CCN2C(=O)c3ncc(C(F)(F)F)cc3OC[C@H]2C1)Nc1cn[nH]c(=O)c1C(F)(F)F` [Compound 16, (R)-8-(3-((S)-2-((6-oxo-5-(trifluoromethyl)-1,6-dihydropyridazin-4-yl)amino)propoxy)propionyl)-3-(trifluoromethyl)-6,6a, 7,8,9,10-hexahydro-12H-pyrazino[2,1-c]pyrido[2,3-f][1,4]oxazepin-12-one], the IC50 in the assay on NCI-H1373 cells was over 5000 nM; against PARP7, 10 to 100 nM.

On to `C[C@@H](COCCC(=O)N1CCN2C(=O)c3ncc(C(F)(F)F)cc3OC[C@@H]2C1)Nc1cn[nH]c(=O)c1C(F)(F)F` [Compound 17, (S)-8-(3-((S)-2-((6-oxo-5-(trifluoromethyl)-1,6-dihydropyridazin-4-yl)amino)propoxy)propionyl)-3-(trifluoromethyl)-6,6a, 7,8,9,10-hexahydro-12H-pyrazino[2,1-c]pyrido[2,3-f][1,4]oxazepin-12-one], for which the half-maximal inhibitory concentration (IC50) is over 5000 nM in the assay with NCI-H1373 cells and 10 to 100 nM on PARP7.

Consider `C[C@@H](COCCC(=O)N1CCN2Cc3ncc(C(F)(F)F)cc3OC[C@H]2C1)Nc1cn[nH]c(=O)c1C(F)(F)F` [Compound 18, 5-(((S)-1-(3-oxo-3-((R)-3-(trifluoromethyl)-6a, 7,9,10-tetrahydro-12H-pyrazino[2,1-c]pyrido[2,3-f][1,4]oxazepin-8(6H)-yl)propoxy)prop-2-yl)amino)-4-(trifluoromethyl)pyridazin-3(2H)-one], for which the IC50 in the assay with NCI-H1373 cells was over 5000 nM; against PARP7 it was 10 to 100 nM.

Consider `C[C@@H](COCCC(=O)N1CCN2Cc3ncc(C(F)(F)F)cc3OC[C@@H]2C1)Nc1cn[nH]c(=O)c1C(F)(F)F` [Compound 19, 5-(((S)-1-(3-oxo-3-((S)-3-(trifluoromethyl)-6a, 7,9,10-tetrahydro-12H-pyrazino[2,1-c]pyrido[2,3-f][1,4]oxazepin-8(6H)-yl)propoxy)prop-2-yl)amino)-4-(trifluoromethyl)pyridazin-3(2H)-one], for which the IC50 in the assay on NCI-H1373 cells is over 5000 nM; on PARP7 it was 100 to 500 nM.

Take `C[C@@H](COCCC(=O)N1CCN2c3ncc(F)cc3COC[C@H]2C1)Nc1cn[nH]c(=O)c1C(F)(F)F` [Compound 20, (R)-9-(3-((S)-2-((6-oxo-5-(trifluoromethyl)-1,6-dihydropyridazin-4-yl)amino)propoxy)propionyl)-3-fluoro-7,7a, 8,9,10,11-hexahydro-5H-pyrazino[2,1-c]pyrido[2,3-e][1,4]oxazin-5-one]: the results for the IC50 with NCI-H1373 cells and against PARP7 were over 5000 nM and over 500 nM, respectively.

Consider `C[C@@H](COCCC(=O)N1CCN2c3ncc(C(F)(F)F)cc3CS(=O)(=O)C[C@H]2C1)Nc1cn[nH]c(=O)c1C(F)(F)F` [Compound 22], for which the 50% inhibitory concentration (IC50) was 500 to 5000 nM with NCI-H1373 cells and under 10 nM on PARP7.

As to `C[C@@H](COCCC(=O)N1CCN2c3ncc(C(F)(F)F)cc3CN(C)C[C@H]2C1)Nc1cn[nH]c(=O)c1C(F)(F)F` [Compound 23, 5-(((S)-1-(3-((S)-6-methyl-3-(trifluoromethyl)-6,7,7a, 8,10,11-octahydropyrazino[1,2-a]pyrido[3,2-f][1,4]Diazepin-9(5H)-yl)-3-propoxy)prop-2-yl)amino)-4-(trifluoromethyl) pyridazin-3(2H)-one], the IC50 is 100 to 500 nM in the assay with NCI-H1373 cells and under 10 nM against PARP7.

Take `C[C@@H]1CN2c3ncc(C(F)(F)F)cc3COC[C@H]2CN1C(=O)CCOC[C@H](C)Nc1cn[nH]c(=O)c1C(F)(F)F` [Compound 25, 5-(((S)-1-(3-((6aR,9R)-9-methyl-3-(trifluoromethyl)-6a, 7,9,10-tetrahydropyrazino[1,2-d]pyrido[3,2-b][1,4]oxazin-8(6H)-yl)-3-oxypropoxy)prop-2-yl)amino)-4-(trifluoromethyl)pyridazin-3(2H)-one]: the figures for the IC50 in the assay on NCI-H1373 cells and against PARP7 were 100 to 500 nM and under 10 nM, respectively.

Take `CC1SC[C@H]2CN(C(=O)CCOC[C@H](C)Nc3cn[nH]c(=O)c3C(F)(F)F)CCN2c2ncc(C(F)(F)F)cc21` (some centres unmarked) [Compound 27]: the results for the half-inhibitory concentration (IC50) in the assay on NCI-H1373 cells and on PARP7 were 500 to 5000 nM and under 10 nM, respectively.

Regarding `C[C@@H](COCCC(=O)N1CCN2c3ncc(C(F)(F)F)cc3OCC[C@H]2C1)Nc1cn[nH]c(=O)c1C(F)(F)F` [Compound 29, 5-(((S)-1-(3-oxo-3-((S)-3-(trifluoromethyl)-6,7,7a, 8,10,11-hexahydro-9H-pyrazino[1,2-d]pyrido[3,2-b][1,4]oxazepan-9-yl)propoxy)prop-2-yl)amino)-4-(trifluoromethyl)pyridazin-3(2H)-one], the IC50 in the assay on NCI-H1373 cells was under 100 nM; against PARP7 it was under 10 nM.

For `C[C@@H](COCCC(=O)N1CCN2c3ncc(C(F)(F)F)cc3N(C3CC3)C(=O)[C@@H]2C1)Nc1cn[nH]c(=O)c1C(F)(F)F` [Compound 30, (s)-5-cyclopropyl-8-(3-((S)-2-((6-oxo-5-(trifluoromethyl)-1,6-dihydropyridazin-4-yl)amino)propoxy)propionyl)-3-(trifluoromethyl)-7,8,9,10-tetrahydro-5H-pyrazino[1,2-a]pyrido[3,2-e]pyrazin-6(6aH)-one], the values for the IC50 with NCI-H1373 cells and against PARP7 were 100 to 500 nM and under 10 nM, respectively.

As for `Cc1nc2c(cc1C(F)(F)F)COC[C@H]1CN(C(=O)CCOC[C@H](C)Nc3cn[nH]c(=O)c3C(F)(F)F)CCN21` [Compound 31], the figures for the IC50 in the assay with NCI-H1373 cells and on PARP7 were 500 to 5000 nM and under 10 nM, respectively.

Turning to `C[C@@H](COCCC(=O)N1CCN2c3ncc(C(F)(F)F)cc3CCC2C1)Nc1cn[nH]c(=O)c1C(F)(F)F` (some centres unmarked) [Compound 32], the IC50 is under 100 nM in the assay on NCI-H1373 cells and under 10 nM against PARP7.

With `C[C@@H](COCCC(=O)N1CCN2c3ncc(C(F)(F)F)nc3OC[C@@H]2C1)Nc1cn[nH]c(=O)c1C(F)(F)F` [Compound 34, 5-(((S)-1-(3-oxo-3-((S)-3-(trifluoromethyl)-6a, 7,9,10-tetrahydrobipyrazino[2,3-b: 1′,2′-d][1,4]oxazin-8(6H)-yl)propoxy)prop-2-yl)amino)-4-(trifluoromethyl)pyridazin-3(2H)-one], the IC50 is 500 to 5000 nM in the assay with NCI-H1373 cells and under 10 nM on PARP7.

Take `C[C@@H](COCCC(=O)N1CCN2c3ncc(C(F)(F)F)cc3NCC[C@H]2C1)Nc1cn[nH]c(=O)c1C(F)(F)F` [Compound 35, 5-(((S)-1-(3-oxo-3-((S)-3-(trifluoromethyl)-6,7,7a, 8,10,11-hexahydropyrazino[1,2-d]pyrido[3,2-b][1,4]diazepine-9(5H)-yl)propoxy)prop-2-yl)amino)-4-(trifluoromethyl)pyridazin-3(2H)-one]: the values for the IC50 in the assay with NCI-H1373 cells and at PARP7 were under 100 nM and under 10 nM, respectively.
